Experimental data from ChEMBL document CHEMBL4814030, “Optimization of ether and aniline based inhibitors of lactate dehydrogenase” (Bioorg Med Chem Lett, 2021).
In brackets after ≈: the same amount, converted by molar mass.

Key:
[1] = target: T1, L-lactate dehydrogenase A chain (Homo sapiens, UniProt P00338); experiment: Inhibition of LDHA in human A673 cells assessed as reduction in lactate production incubated for 2 hrs by fluorescence based assay; assay type: cell-based
[2] = target: T1, L-lactate dehydrogenase A chain; experiment: Inhibition of recombinant human LDHA using sodium pyruvate as substrate preincubated for 5 mins followed by diaphorase/resazurin addition and measured after 20 mins by fluorescence based assay
A673 = experiment: Cytotoxicity against human A673 cells assessed as reduction in cell viability incubated for 48 hrs by cell titer glo assay; assay type: functional, cell-based; settings: A673, 48 h
[3] = Permeability of compound by PAMPA; assay type: ADME; settings: read-out: permeability
[4] = Metabolic stability in rat microsomes assessed as half life; assay type: ADME, Microsome
MIA PaCa-2 = experiment: Cytotoxicity against human MIA PaCa-2 cells assessed as reduction in cell viability incubated for 48 hrs by cell titer glo assay; assay type: functional, cell-based; settings: MIA PaCa-2, 48 h
[5] = target: T1, L-lactate dehydrogenase A chain; experiment: Inhibition of LDHA in human MIA PaCa2 cells assessed as reduction in lactate production incubated for 2 hrs by fluorescence based assay; assay type: cell-based, MIA PaCa-2
[6] = Kinetic solubility of compound; assay type: physicochemical; settings: read-out: Kinetic_solubility
[7] = target: T1, L-lactate dehydrogenase A chain; experiment: Binding affinity to LDHA (unknown origin) by SPR analysis

Row | SMILES | IC50 [1] | IC50 [2] | Papp [3] | t1/2 [4] | IC50 [5] | solubility kinetic [6] | Kd [7] | IC50 (A673) | IC50 (MIA PaCa-2)
1 | COc1cc(-c2nn(-c3nc(C(=O)O)cs3)c(CC3CC3)c2Cc2ccc(S(N)(=O)=O)cc2)ccc1F |  | 8 nM |  |  | 5700 nM |  |  |  | 
2 | NS(=O)(=O)c1ccc(Cc2c(-c3ccc(F)c(N4CCCC4=O)c3)nn(-c3nc(C(=O)O)cs3)c2CC2CC2)cc1F |  | 111 nM |  |  | 6000 nM |  |  |  | 
3 | Cc1ccc(COc2cccc(-c3nn(-c4nc(C(=O)O)cs4)cc3Cc3ccc(S(N)(=O)=O)cc3)c2)cc1 |  | 39 nM |  |  | 7500 nM |  |  |  | 
4 | NS(=O)(=O)c1ccc(Cc2c(-c3ccc(F)c(C(=O)N4CCCC4)c3)nn(-c3nc(C(=O)O)cs3)c2CC2CC2)cc1F | 16600 nM | 154 nM | 57 nm/s | > 30 min | 19900 nM | > 0.093 mg/mL |  | > 50000 nM | 6600 nM
5 | NS(=O)(=O)c1ccc(Cc2c(-c3ccc(F)c(OCC4CCCO4)c3)nn(-c3nc(C(=O)O)cs3)c2CC2CC2)cc1F (stereo not given) |  | 5 nM |  |  | 2900 nM |  |  |  | 
6 | COc1cccc(COc2cccc(-c3nn(-c4nc(C(=O)O)cs4)cc3Cc3ccc(S(N)(=O)=O)cc3)c2)c1 |  | 21 nM |  |  | 5400 nM |  |  |  | 
7 | NS(=O)(=O)c1ccc(Cc2c(-c3ccc(F)c(OCc4ccc(C(F)(F)F)o4)c3)nn(-c3nc(C(=O)O)cs3)c2CC2CC2)cc1F | 1100 nM | 23 nM | 120 nm/s | > 30 min | 1000 nM | 0.0532 mg/mL (≈ 76.6 µM) | 0.001 nM | 440 nM | 2100 nM
8 | NS(=O)(=O)c1ccc(Cc2cn(-c3nc(C(=O)O)cs3)nc2-c2cccc(OCC3CCCC3)c2)cc1 |  | 29 nM |  |  | 7700 nM |  |  |  | 
9 | CC(C)N1CC2(CN(c3cc(-c4nn(-c5nc(C(=O)O)cs5)c(CC5CC5)c4Cc4ccc(S(N)(=O)=O)c(F)c4)ccc3F)C2)C1 |  | 37 nM |  |  | 24100 nM |  |  |  | 
10 | NS(=O)(=O)c1ccc(Cc2c(-c3cccc(N4CCCC(F)(F)C4)c3)nn(-c3nc(C(=O)O)cs3)c2CC2CC2)cc1F |  | 18 nM |  |  | 8600 nM |  |  |  | 
11 | COc1cccc(-c2nn(-c3nc(C(=O)O)cs3)cc2Cc2ccc(S(N)(=O)=O)cc2)c1 |  | 90 nM |  |  | > 57000 nM |  |  |  | 
12 | NS(=O)(=O)c1ccc(Cc2c(-c3cccc(N4CCCC(C(F)(F)F)C4)c3)nn(-c3nc(C(=O)O)cs3)c2CC2CC2)cc1F (stereo not given) |  | 59 nM |  |  | 6900 nM |  |  |  | 
13 | CC(C)(C)NC(=O)c1cc(-c2nn(-c3nc(C(=O)O)cs3)c(CC3CC3)c2Cc2ccc(S(N)(=O)=O)c(F)c2)ccc1F |  | 6 nM |  |  | 11700 nM |  |  |  | 
14 | NS(=O)(=O)c1ccc(Cc2c(-c3ccc(F)c(C(=O)N4CCOCC4)c3)nn(-c3nc(C(=O)O)cs3)c2CC2CC2)cc1F |  | 22 nM |  |  | 3200 nM |  |  |  | 
15 | NS(=O)(=O)c1ccc(Cc2c(-c3ccc(F)c(Oc4ccc(C(F)(F)F)cc4)c3)nn(-c3nc(C(=O)O)cs3)c2CC2CC2)cc1F |  | 71 nM |  |  | 1100 nM |  |  |  | 
16 | NS(=O)(=O)c1ccc(Cc2cn(-c3nc(C(=O)O)cs3)nc2-c2cccc(OCc3cccnc3)c2)cc1 |  | 77 nM |  |  | > 57000 nM |  |  |  | 
17 | NS(=O)(=O)c1ccc(Cc2c(-c3cccc(OC4CCCC4)c3)nn(-c3nc(C(=O)O)cs3)c2CC2CC2)cc1F |  | 13 nM |  |  | 710 nM |  |  |  | 
18 | NS(=O)(=O)c1ccc(Cc2c(-c3ccc(F)c(OC4CC4)c3)nn(-c3nc(C(=O)O)cs3)c2CC2CC2)cc1F | 1900 nM | 8 nM | 58 nm/s | > 30 min | 2100 nM | > 0.087 mg/mL | 0.004 nM | 1500 nM | 5700 nM
19 | NS(=O)(=O)c1ccc(Cc2c(-c3cccc(OCc4ccccc4)c3)nn(-c3nc(C(=O)O)cs3)c2CC2CC2)cc1F | 590 nM | 19 nM | 11 nm/s | 2.8 min | 690 nM | 0.0724 mg/mL (≈ 117 µM) | 0.016 nM | 420 nM | 1400 nM
20 | NS(=O)(=O)c1ccc(Cc2c(-c3cccc(N4CCC(F)(F)C4)c3)nn(-c3nc(C(=O)O)cs3)c2CC2CC2)cc1F |  | 15 nM |  |  | 4200 nM |  |  |  | 
21 | NS(=O)(=O)c1ccc(Cc2c(-c3ccc(F)c(OCC4CCOC4)c3)nn(-c3nc(C(=O)O)cs3)c2CC2CC2)cc1F (stereo not given) |  | 5 nM |  |  | 3000 nM |  |  |  | 
22 | NS(=O)(=O)c1ccc(Cc2c(-c3ccc(F)c(OCC4CC4(F)F)c3)nn(-c3nc(C(=O)O)cs3)c2CC2CC2)cc1F (stereo not given) | 1100 nM | 5 nM | 49 nm/s | > 30 min | 1400 nM | 0.0761 mg/mL (≈ 120 µM) | 0.008 nM | 900 nM | 2400 nM
23 | NS(=O)(=O)c1ccc(Cc2c(-c3cccc(N4CCC(F)(F)CC4)c3)nn(-c3nc(C(=O)O)cs3)c2CC2CC2)cc1F |  | 17 nM |  |  | 8700 nM |  |  |  | 
24 | NS(=O)(=O)c1ccc(Cc2c(-c3cccc(N4CCC(C(F)(F)F)CC4)c3)nn(-c3nc(C(=O)O)cs3)c2CC2CC2)cc1F |  | 47 nM |  |  | 2400 nM |  |  |  | 

Continued, in another order:

Row | IC50 [1] | IC50 [2] | Papp [3] | t1/2 [4] | IC50 [5] | solubility kinetic [6] | Kd [7] | SMILES | IC50 (A673) | IC50 (MIA PaCa-2)
25 | 4700 nM | 8 nM | 87 nm/s | 14.9 min | 9100 nM | 0.081 mg/mL (≈ 122 µM) |  | NS(=O)(=O)c1ccc(Cc2c(-c3ccc(F)c(C(=O)NCc4ccccc4)c3)nn(-c3nc(C(=O)O)cs3)c2CC2CC2)cc1F | 5100 nM | 15700 nM
26 |  | 34 nM |  |  | 1700 nM |  |  | NS(=O)(=O)c1ccc(Cc2c(-c3ccc(F)c(Oc4ccccc4)c3)nn(-c3nc(C(=O)O)cs3)c2CC2CC2)cc1 |  | 
27 | 3100 nM | 314 nM | 44 nm/s | 6 min | 6700 nM | 0.0493 mg/mL (≈ 84.2 µM) | 1.5 nM | NS(=O)(=O)c1ccc(Cc2c(-c3cccc(Nc4ccccc4)c3)nn(-c3nc(C(=O)O)cs3)c2CC2CC2)cc1 | 34500 nM | 21200 nM
28 |  | 17 nM |  |  | 9400 nM |  |  | NS(=O)(=O)c1ccc(Cc2cn(-c3nc(C(=O)O)cs3)nc2-c2cccc(Oc3ccccc3)c2)cc1 |  | 
29 |  | 26 nM |  |  | 6100 nM |  |  | NS(=O)(=O)c1ccc(Cc2cn(-c3nc(C(=O)O)cs3)nc2-c2cccc(OCc3cccc(F)c3)c2)cc1 |  | 
30 |  | 23 nM |  |  | > 57000 nM |  |  | NS(=O)(=O)c1ccc(Cc2cn(-c3nc(C(=O)O)cs3)nc2-c2cccc(OCc3ccccn3)c2)cc1 |  | 
31 | 550 nM | 26 nM | 130 nm/s | 6.2 min | 870 nM | 0.024 mg/mL (≈ 37.7 µM) | 1.1 nM | Cc1ccc(Oc2cc(-c3nn(-c4nc(C(=O)O)cs4)c(CC4CC4)c3Cc3ccc(S(N)(=O)=O)c(F)c3)ccc2F)cc1 | 550 nM | 2100 nM
32 |  | 27 nM |  |  | 970 nM |  |  | NS(=O)(=O)c1ccc(Cc2c(-c3ccc(F)c(Oc4cccc(F)c4)c3)nn(-c3nc(C(=O)O)cs3)c2CC2CC2)cc1F |  | 
33 |  | 84 nM |  |  | 3300 nM |  |  | NS(=O)(=O)c1ccc(Cc2c(-c3ccc(F)c(OCc4ccc(F)cc4)c3)nn(-c3nc(C(=O)O)cs3)c2CC2CC2)cc1 |  | 
34 | 2300 nM | 7 nM | 64 nm/s | > 30 min | 5000 nM | > 0.098 mg/mL |  | NS(=O)(=O)c1ccc(Cc2c(-c3ccc(F)c(NC(=O)c4ccccc4)c3)nn(-c3nc(C(=O)O)cs3)c2CC2CC2)cc1F | 5300 nM | 17400 nM
35 | 730 nM | 22 nM | 29 nm/s | < 1 min | 670 nM | 0.0107 mg/mL (≈ 16.3 µM) | 0.91 nM | NS(=O)(=O)c1ccc(Cc2c(-c3ccc(F)c(OCc4cccc(F)c4)c3)nn(-c3nc(C(=O)O)cs3)c2CC2CC2)cc1F | 550 nM | 2100 nM
36 |  | 1060 nM |  |  | 19000 nM |  |  | NS(=O)(=O)c1ccc(Cc2c(-c3cccc(Oc4cccc(F)c4)c3)nn(-c3nc(C(=O)O)cs3)c2CC2CC2)cc1 |  | 
37 | 9400 nM | 27 nM | 16 nm/s | > 30 min | 23400 nM | > 0.088 mg/mL | 0.44 nM | NS(=O)(=O)c1ccc(Cc2c(-c3cccc(N4CCOCC4)c3)nn(-c3nc(C(=O)O)cs3)c2CC2CC2)cc1F | 20400 nM | 18700 nM
38 |  | 41 nM |  |  | 1700 nM |  |  | NS(=O)(=O)c1ccc(Cc2c(-c3ccc(F)c(Oc4ccc(F)cc4)c3)nn(-c3nc(C(=O)O)cs3)c2CC2CC2)cc1F |  | 
